Like-named read-outs stand apart in the source and are kept apart here.
How the values were obtained:
[1] = Pharmacokinetics after intravenous and oral administration in rats; format: in vivo, rat; details: for Cl/F / AUC(0-t) / half-life / Vd: iv dosing; for F: oral bioavailability; for AUC(0-t) / half-life / Vd: rat, plasma; for Vd: read-out: Vss
Method: The compounds disclosed herein are assessed in pharmacokinetic studies in mice, rats, dogs or monkeys. The compounds are administered as a water solution, 2% HPMC+1% TWEEN®80 in water solution, 5% DMSO+5% solutol in saline, 4% MC suspension or capsule. For the intravenous administration, the animals are generally given at 1 or 2 mg/kg dose. For the oral (p.o.) dosing, mice and rats are generally given 5 or 10 mg/kg dose, and dogs and monkeys are generally given 10 mg/kg dose. The blood samples (0.3 mL) are drawn at 0.25, 0.5, 1.0, 2.0, 3.0, 4.0, 6.0, 8.0, 12 and 24 h time points or 0.083, 0.25, 0.5, 1.0, 2.0, 4.0, 6.0, 8.0 and 24 h time points and centrifuged at 3,000 or 4000 rpm for 2 to 10 min. The plasma solutions are collected, stored at −20° C. or -70° C. until analyzed by LC/MS/MS as described above.

[2] = target: c-Met (h) (Homo sapiens (Human), UniProt P08581); experiment: KINOMEscan competition binding assay, c-Met (h)
Chain of c-Met (h) (P08581 25-1390): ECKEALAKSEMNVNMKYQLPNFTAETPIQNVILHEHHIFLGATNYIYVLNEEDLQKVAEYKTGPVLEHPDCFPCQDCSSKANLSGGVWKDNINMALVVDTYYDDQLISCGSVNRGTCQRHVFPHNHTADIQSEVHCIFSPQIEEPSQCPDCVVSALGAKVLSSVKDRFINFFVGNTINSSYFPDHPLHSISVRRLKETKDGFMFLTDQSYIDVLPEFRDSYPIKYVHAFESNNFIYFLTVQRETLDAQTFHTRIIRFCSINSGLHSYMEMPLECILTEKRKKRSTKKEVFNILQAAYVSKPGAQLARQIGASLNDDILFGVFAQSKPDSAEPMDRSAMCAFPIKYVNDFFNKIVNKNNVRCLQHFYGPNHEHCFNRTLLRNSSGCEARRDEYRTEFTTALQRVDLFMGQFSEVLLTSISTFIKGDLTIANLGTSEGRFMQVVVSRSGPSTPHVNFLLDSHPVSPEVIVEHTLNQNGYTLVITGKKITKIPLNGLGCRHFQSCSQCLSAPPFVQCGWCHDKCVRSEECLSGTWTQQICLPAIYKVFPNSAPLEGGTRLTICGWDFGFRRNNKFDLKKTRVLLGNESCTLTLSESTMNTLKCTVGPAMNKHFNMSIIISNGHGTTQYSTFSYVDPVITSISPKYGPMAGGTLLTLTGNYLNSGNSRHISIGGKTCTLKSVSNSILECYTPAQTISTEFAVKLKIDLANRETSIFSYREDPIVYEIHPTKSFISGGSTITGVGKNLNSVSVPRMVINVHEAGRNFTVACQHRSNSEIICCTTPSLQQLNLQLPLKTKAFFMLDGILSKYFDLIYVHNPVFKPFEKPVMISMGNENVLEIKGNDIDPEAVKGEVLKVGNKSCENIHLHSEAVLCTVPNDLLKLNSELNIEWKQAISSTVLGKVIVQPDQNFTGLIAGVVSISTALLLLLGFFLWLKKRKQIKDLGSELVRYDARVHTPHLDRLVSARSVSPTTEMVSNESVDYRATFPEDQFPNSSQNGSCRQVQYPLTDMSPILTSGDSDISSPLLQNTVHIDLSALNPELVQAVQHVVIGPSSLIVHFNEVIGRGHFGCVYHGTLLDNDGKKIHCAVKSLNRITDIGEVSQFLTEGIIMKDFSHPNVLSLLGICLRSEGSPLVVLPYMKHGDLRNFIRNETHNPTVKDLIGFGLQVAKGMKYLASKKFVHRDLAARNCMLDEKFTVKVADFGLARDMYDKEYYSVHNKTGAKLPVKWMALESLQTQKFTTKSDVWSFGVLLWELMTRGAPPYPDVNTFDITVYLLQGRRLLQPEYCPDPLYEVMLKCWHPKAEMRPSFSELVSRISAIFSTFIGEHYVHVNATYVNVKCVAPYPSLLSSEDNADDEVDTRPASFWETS

[3] = target: KDR (h) (Homo sapiens (Human), UniProt P35968); experiment: KINOMEscan competition binding assay, KDR (h)
Chain of KDR (h) (P35968 20-1356): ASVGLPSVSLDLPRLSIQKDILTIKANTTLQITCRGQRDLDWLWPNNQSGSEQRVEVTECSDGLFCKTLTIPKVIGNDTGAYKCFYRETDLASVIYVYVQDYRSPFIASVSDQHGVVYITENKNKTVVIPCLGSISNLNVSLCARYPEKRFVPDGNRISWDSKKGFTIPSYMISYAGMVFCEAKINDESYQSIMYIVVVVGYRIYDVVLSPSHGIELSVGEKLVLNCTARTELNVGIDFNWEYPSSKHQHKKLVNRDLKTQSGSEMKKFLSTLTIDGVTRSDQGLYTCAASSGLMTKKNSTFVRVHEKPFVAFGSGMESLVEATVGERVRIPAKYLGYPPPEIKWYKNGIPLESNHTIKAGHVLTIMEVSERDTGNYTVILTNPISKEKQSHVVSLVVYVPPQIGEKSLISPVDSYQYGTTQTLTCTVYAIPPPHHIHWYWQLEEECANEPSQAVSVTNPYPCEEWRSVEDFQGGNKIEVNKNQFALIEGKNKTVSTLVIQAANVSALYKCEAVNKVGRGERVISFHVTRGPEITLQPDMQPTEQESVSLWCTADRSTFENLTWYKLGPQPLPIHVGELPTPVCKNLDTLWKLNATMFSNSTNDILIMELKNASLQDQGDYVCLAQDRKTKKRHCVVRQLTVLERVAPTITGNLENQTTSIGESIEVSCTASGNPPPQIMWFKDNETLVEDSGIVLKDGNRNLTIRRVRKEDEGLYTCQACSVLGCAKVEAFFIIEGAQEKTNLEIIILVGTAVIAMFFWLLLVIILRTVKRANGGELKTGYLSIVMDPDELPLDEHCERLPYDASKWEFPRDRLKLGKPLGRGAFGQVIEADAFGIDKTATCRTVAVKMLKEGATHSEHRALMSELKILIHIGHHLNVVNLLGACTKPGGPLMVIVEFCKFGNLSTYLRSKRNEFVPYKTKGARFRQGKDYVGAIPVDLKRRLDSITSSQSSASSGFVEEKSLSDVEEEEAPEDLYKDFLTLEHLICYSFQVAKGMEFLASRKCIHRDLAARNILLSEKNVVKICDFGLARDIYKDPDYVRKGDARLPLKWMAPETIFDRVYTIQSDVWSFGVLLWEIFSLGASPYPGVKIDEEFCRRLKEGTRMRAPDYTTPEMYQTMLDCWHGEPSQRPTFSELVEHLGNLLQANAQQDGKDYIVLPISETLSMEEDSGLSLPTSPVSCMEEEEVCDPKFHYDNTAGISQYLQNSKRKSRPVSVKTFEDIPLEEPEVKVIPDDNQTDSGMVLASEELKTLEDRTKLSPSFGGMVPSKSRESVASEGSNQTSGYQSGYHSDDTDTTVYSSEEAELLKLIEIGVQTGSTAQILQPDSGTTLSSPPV

[4] = test system: U87MG glioblastoma cells; experiment: U87MG tumor xenograft model, tumor growth inhibition; format: in vivo; details: nude mice, oral gavage once a day, 12 days
Method: The efficacy of compounds disclosed herein was evaluated in a standard murine model of tumorigenesis. Human tumor cells (U87MG glioblastoma cells from ATCC) were expended in culture, harvested, and injected subcutaneously onto the rear flank of 6-7 week old female athymic nude mice (BALB/cA nu/nu, Hunan SLAC Laboratory Animal, Co.) (n=6-10 for vehicle group and for each dosing group). When tumors reached a volume of 100-250 mm^3, animals were randomly divided into vehicle control (for example, 5% DMSO+70% Captisol® (30%), 7% HCl (pH1), 18% Captisol® (30%); or 7% DMSO, 7% HCl (pH1), 70% Captisol® (30%), 16% Captisol® (30%), or the like) and compound groups. Subsequent administration of compound by oral gavage begins anywhere from day 0 to day 15 post tumor cell challenge and generally continues with once a day for the duration of the experiment.
Progression of tumor growth is assessed by tumor volumes and recorded as a function of time. The long (L) and short (W) axes of the subcutaneous tumors were measured with calipers twice weekly, and the tumor volume (TV) calculated as (L×W^2)/2). TGI was calculated from the difference between the median tumor volumes of vehicle-treated and drug-treated mice, expressed as a percentage of the median tumor volume of the vehicle-treated control group, by the following relation:
[formula] Initial statistical analysis is done by repeated measures analysis of variance (RMANOVA), followed by Scheffe psot hoc testing for multiple comparisons. Vehicle alone (5% DMSO+70% Captisol® (30%), 7% HCl (pH1), 18% Captisol® (30%); or 7% DMSO, 7% HCl (pH1), 70% Captisol® (30%), 16% Captisol® (30%), or the like) is the negative control.

[5] = Compound stability in rat liver microsomes; format: in vitro ADME; details: for stability / metabolism in rat liver microsomes (in words): incubated in rat liver microsomes; for half-life at 5 μM / CLint scaled at 5 μM: pH 7.4, rat liver microsomes; for half-life at 5 μM: 0.5 mg protein/mL, compound 5 μM, NADPH 1.0 mM, 37° C.; for CLint scaled at 5 μM: in vivo CLint extrapolated
Method: Human or rat liver microsomes incubations were conducted in duplicate in polypropylene tubes. The typical incubation mixtures consisted of human or rat liver microsomes (0.5 mg protein/mL), compounds of interest (5 μM) and NADPH (1.0 mM) in a total volume of 200 μL, potassium phosphate buffer (PBS, 100 mM, pH 7.4). Compounds were dissolved in DMSO and diluted with PBS such that the final concentration of DMSO was 0.05%. The enzymatic reactions were commenced with the addition of protein after a 3-min preincubation and incubated in a water bath open to the air at 37° C. Reactions were terminated at various time points (0, 5, 10, 15, 30, 60 min) by adding equal volume of ice-cold acetonitrile. The samples were stored at −80° C. until LC/MS/MS assays.
The concentrations of compounds in the incubation mixtures of human or rat liver microsomes were determined by a LC/MS/MS method. The ranges of the linearity in the concentration range were determined for each tested compounds.
A parallel incubation was performed using denatured microsomes as the negative control, and reactions were terminated at various time points (0, 15, 60 min) after incubation at 37° C.
Dextromethorphan (70 μM) was selected as the positive control, and reactions were terminated at various time points (0, 5, 10, 15, 30, 60 min) after incubation at 37° C. Both positive and negative control samples were included in each assay to ensure the integrity of the microsomal incubation system.
The concentrations of compounds in human or rat liver microsome incubations were plotted as a percentage of the relevant zero time point control for each reaction. The in vivo CLint were extrapolated (ref: Naritomi Y, Terashita S, Kimura S, Suzuki A, Kagayama A, Sugiyama Y. Prediction of human hepatic clearance from in vivo animal experiments and in vitro metabolic studies with liver microsomes from animals and humans. Drug Metabolism and Disposition 2001, 29: 1316-1324.)

SMILES	Cl/F ([1]; dose 2 mg/kg) [mL/min/kg]	F ([1]; iv dose 2 mg/kg) [%]	AUC(0-t) ([1]; dose 2 mg/kg) [ng·h/mL]	half-life ([1]; dose 2 mg/kg) [h]	Vd ([1]; dose 2 mg/kg) [L/kg]	Kd [2] [nM]	Kd [3] [nM]	TGI% (on last day of dosing) ([4]; 6 mg/kg) [%]	TGI% (on last day of dosing) ([4]; 30 mg/kg) [%]	stability / metabolism in rat liver microsomes (in words) [5]	half-life at 5 μM [5] [h]	CLint scaled at 5 μM [5] [mL/min/kg]	Cl/F ([1]; dose 1 mg/kg) [mL/min/kg]	F ([1]; iv dose 1 mg/kg) [%]	AUC(0-t) ([1]; dose 1 mg/kg) [ng·h/mL]	half-life ([1]; dose 1 mg/kg) [h]	Vd ([1]; dose 1 mg/kg) [L/kg]
Cc1c(C(=O)Nc2ccc(Oc3ccnc(NC(=O)C4CC4)c3)cn2)c(=O)n(-c2ccccc2)n1C [Example 8, N-(5-((2-(cyclopropanecarboxamido)pyridin-4-yl)oxy)pyridin-2-yl)-1,5-dimethyl-3-oxo-2-phenyl-2,3-dihydro-1H-pyrazole-4-carboxamide]	0.83	85.88	38300	4.06	0.27	2.4	3.2	32	78	little metabolized	11.7	3.53					
Cc1c(C(=O)Nc2ccc(Oc3ccnc(C(N)=O)c3)c(F)c2)c(=O)n(-c2ccccc2)n1C [Example 10, 4-(4-(1,5-dimethyl-3-oxo-2-phenyl-2,3-dihydro-1H-pyrazole-4-carboxamido)-2-fluorophenoxy)picolinamide]						200	450										
Cc1c(C(=O)Nc2ccc(Oc3ccnc(NC(=O)C4CC4)c3)c(F)c2)c(=O)n(-c2ccccc2)n1C [Example 11, N-(4-((2-(cyclopropanecarboxamido)pyridin-4-yl)oxy)-3-fluorophenyl)-1,5-dimethyl-3-oxo-2-phenyl-2,3-dihydro-1H-pyrazole-4-carboxamide]						0.5	6.3	56	97	little metabolized	3.93	10.5	0.83	133.5	14000	4.61	0.34
Cc1c(C(=O)Nc2ccc(Oc3ccnc(NC(=O)C4CC4)c3)cc2)c(=O)n(-c2ccccc2)n1C [Example 16, N-(4-((2-(cyclopropanecarboxamido)pyridin-4-yl)oxy)phenyl)-1,5-dimethyl-3-oxo-2-phenyl-2,3-dihydro-1H-pyrazole-4-carboxamide]						0.21	2.9			little metabolized	7.06	5.86	0.67	94.49	23400	5.95	0.31
